Patent US12122816B2, “Long acting peptide tyrosine tyrosine (PYY) analogs and methods of use” (Intarcia Therapeutics, Inc., priority 2020, dated 2024)
Read-outs that look alike come from different tables or passages of the source. Starred links: 1 amine or outer side, 2 acyl side, 3 side chain; linkers in the order of their positions; H or OH if unused. Residues, ends and D or L forms follow the SMILES beside them. Groups on a side chain read outwards from the residue. *: point of attachment. C20 diacid = O=C(O)CCCCCCCCCCCCCCCCCCC(=O)*; γGlu = O=C(O)[C@H](CCC(=O)[*:2])N[*:1]

Columns and labels:
[1] = biological target: T1, human Y5 receptor (Homo sapiens, UniProt Q15761); test: NPY receptor functional assay (cAMP, HEK-CNG cells, ACTOne membrane potential dye); type: cell-based; settings: NPY5R pEC50, HEK-CNG cells; standard NPY; species (human or rat) not given
T1 sequence (Q15761 1-445): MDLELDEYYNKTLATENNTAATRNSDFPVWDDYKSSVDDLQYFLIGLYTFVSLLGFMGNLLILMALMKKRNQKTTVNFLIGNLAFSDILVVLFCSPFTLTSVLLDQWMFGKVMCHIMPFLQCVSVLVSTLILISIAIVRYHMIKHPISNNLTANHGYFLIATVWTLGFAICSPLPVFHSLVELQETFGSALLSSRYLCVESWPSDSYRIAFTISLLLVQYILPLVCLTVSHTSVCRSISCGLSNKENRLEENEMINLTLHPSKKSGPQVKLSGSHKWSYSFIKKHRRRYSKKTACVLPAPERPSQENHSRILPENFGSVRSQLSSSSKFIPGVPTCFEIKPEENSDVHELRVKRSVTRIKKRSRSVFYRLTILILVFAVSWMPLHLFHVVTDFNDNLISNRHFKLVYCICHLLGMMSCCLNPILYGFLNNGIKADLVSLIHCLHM
Method in brief: (§1)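 HEK-CNG cells stably expressing each human receptor; peptides added in triplicate for 50 minutes at room temperature, with agonism read as decreased isoproterenol-induced membrane potential dye signal (final/initial read).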

[2] = biological target: T2, human Y2 receptor (Homo sapiens, UniProt P49146); test: as above; type: cell-based; settings: NPY2R pEC50, HEK-CNG cells; standard PYY(3-36); species (human or rat) not given
T2 sequence (P49146 1-381): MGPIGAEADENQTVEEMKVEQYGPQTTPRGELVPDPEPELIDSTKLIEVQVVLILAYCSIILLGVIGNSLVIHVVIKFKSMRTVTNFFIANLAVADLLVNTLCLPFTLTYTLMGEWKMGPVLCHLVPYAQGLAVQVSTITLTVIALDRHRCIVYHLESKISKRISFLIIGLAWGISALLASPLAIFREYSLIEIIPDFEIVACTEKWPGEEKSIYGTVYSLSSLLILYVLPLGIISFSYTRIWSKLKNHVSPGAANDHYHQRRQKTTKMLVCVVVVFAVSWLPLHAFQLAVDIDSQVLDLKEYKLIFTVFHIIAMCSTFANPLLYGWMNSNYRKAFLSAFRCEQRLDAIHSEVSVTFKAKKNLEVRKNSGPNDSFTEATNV
Method in brief: as §1

[3] = In vitro metabolic stability in kidney brush border membranes (kBBM); type: in vitro ADME; settings: 1 mcM peptide, 37° C.
Method: In vitro incubations in kidney brush border membrane (kBBM) preparations were used to characterize the ability of peptides to resist degradation by proteases and peptidases in the systemic circulation. kBBM were selected because they contain a high concentration of a diverse set of proteases and peptidases, many of which are present throughout the body.
Brush border membranes from rat and human kidney tissue were prepared via centrifugation and stored at −70° C. Thawed stocks of rat or human kBBM were diluted to the appropriate concentration in 25 mM HEPES buffer (pH 7.4) containing 1% casein and aliquoted into a 96-well plate. The kBBM solutions were pre-warmed for 10 minutes at 37° C. […] The final concentration of kBBM in each incubation was 50 mcg protein/mL. Reactions were maintained at 37° C. in a shaking water bath. […] Quenched samples were centrifuged at 2178×g for 10 min and then a portion of the supernatants were transferred to a clean 96-well plate and diluted 1:1 with water. Samples were analyzed by UPLC-MS/MS.

[4] = In vitro stability in subcutaneous (SC) tissue homogenates; type: in vitro ADME; settings: subcutaneous tissue homogenate, pH 7.4; human SC tissue homogenate 1.0 mg protein/mL, 10 mcM peptide, 37° C.; read-out: (H)SC tissue stability t½ (converted)
Method: In vitro incubations in subcutaneous (SC) tissue homogenates were used to characterize the ability of peptides to resist pre-systemic degradation by proteases and peptidases after SC administration. […] Peptides with high SC bioavailability are stable in this assay, while peptides with low SC bioavailability are unstable in this assay.
Human SC tissue was homogenized in cold 25 mM HEPES buffer (pH 7.4, 10-fold volume based on sample weight), and then filtered through a double layer of cheesecloth. The filtrates were aliquoted, flash frozen on a methanol/dry ice bath and stored at −80° C. The protein concentration of each pooled batch was determined using the BCA protein assay. Thawed stocks of human SC tissue homogenates were diluted to 1.0 mg protein/mL in 25 mM HEPES buffer (pH 7.4) and aliquoted into a 96-well plate. The diluted SC homogenates were pre-warmed for 10 minutes at 37° C. […] Reactions were maintained at 37° C. in a shaking water bath. […] Quenched samples were centrifuged at 2178×g for 10 min and then a portion of the supernatants were transferred to a clean 96-well plate and diluted 1:10 with water. Samples were analyzed by UPLC-MS/MS.

[5] = pH 7.4, human kBBM 50 mcg protein/mL, read-out: hkBBM t½ (converted)

| Compound | EC50 [1] [nM] | EC50 [2] [nM] | half-life at 1 mcM [3, 5] [min] | half-life at 1 mcM ([3]; pH 7.4, rat kBBM 50 mcg protein/mL, read-out: rkBBM t½) [min] | half-life at 10 mcM [4] [min] |
| --- | --- | --- | --- | --- | --- |
| CC(C)C[C@H](NC(=O)[C@H](CC(=O)O)NC(=O)[C@H](CCCCNC(=O)CC[C@H](NC(=O)COCCOCCNC(=O)COCCOCCNC(=O)CC[C@H](NC(=O)CCCCCCCCCCCCCCCCCCC(=O)O)C(=O)O)C(=O)O)NC(=O)[C@H](Cc1ccc(O)cc1)NC(=O)[C@H](Cc1ccc(O)cc1)NC(=O)[C@H](CCCNC(=N)N)NC(=O)[C@H](CC(N)=O)NC(=O)[C@H](Cc1c[nH]c2ccccc12)NC(=O)[C@H](CCC(=O)O)NC(=O)[C@H](CCC(=O)O)NC(=O)[C@@H]1CCCN1C(=O)[C@H](CO)NC(=O)[C@H](C)NC(=O)[C@H](CC(=O)O)NC(=O)[C@H](CCCCN)NC(=O)CNC(=O)[C@@H]1CCCN1C(=O)[C@H](C)NC(=O)[C@H](CCC(=O)O)NC(=O)[C@@H]1CCCN1C(=O)[C@H](CCCCN)NC(=O)[C@@H]1CCCN1)C(=O)N[C@@H](CCCNC(=N)N)C(=O)N[C@@H](Cc1c[nH]cn1)C(=O)N[C@@H](Cc1ccc(O)cc1)C(=O)N[C@@H](CC(C)C)C(=O)N[C@@H](CC(N)=O)C(=O)N[C@@H](Cc1c[nH]c2ccccc12)C(=O)N[C@@H](CC(C)C)C(=O)N[C@H](C(=O)N[C@@H](CCCNC(=N)N)C(=O)N[C@@H](CCC(N)=O)C(=O)N[C@@H](CCCNC(=N)N)C(=O)N[C@@H](Cc1ccccc1)C(N)=O)[C@@H](C)O [Compound A16] | 0.794 | 0.0631 | > 720 | > 720 | 438 |
| CC(C)C[C@H](NC(=O)[C@H](CC(=O)O)NC(=O)[C@H](CCCCNC(=O)CC[C@H](NC(=O)CC[C@H](NC(=O)CCCCCCCCCCCCCCCCCCC(=O)O)C(=O)O)C(=O)O)NC(=O)[C@H](Cc1ccc(O)cc1)NC(=O)[C@H](Cc1ccc(O)cc1)NC(=O)[C@H](CCCNC(=N)N)NC(=O)[C@H](CC(N)=O)NC(=O)[C@H](Cc1c[nH]c2ccccc12)NC(=O)[C@H](CCC(=O)O)NC(=O)[C@H](CCCCN)NC(=O)[C@@H]1CCCN1C(=O)[C@H](CO)NC(=O)[C@H](C)NC(=O)[C@H](CC(=O)O)NC(=O)[C@H](CCCCN)NC(=O)CNC(=O)[C@@H]1CCCN1C(=O)[C@H](CCCCN)NC(=O)[C@H](CCC(=O)O)NC(=O)[C@@H]1CCCN1C(=O)[C@H](CCCCN)NC(=O)[C@@H]1CCCN1)C(=O)N[C@@H](CCCNC(=N)N)C(=O)N[C@@H](Cc1c[nH]cn1)C(=O)N[C@@H](Cc1ccc(O)cc1)C(=O)N[C@@H](CC(C)C)C(=O)N[C@@H](CC(N)=O)C(=O)N[C@@H](Cc1c[nH]c2ccccc12)C(=O)N[C@@H](CC(C)C)C(=O)N[C@H](C(=O)N[C@@H](CCCNC(=N)N)C(=O)N[C@@H](CCC(N)=O)C(=O)N[C@@H](CCCNC(=N)N)C(=O)N[C@@H](Cc1ccccc1)C(N)=O)[C@@H](C)O [Compound A28] (H-PKPEKPGKDASPKEWNRYYK([γGlu-γGlu-C20 diacid])DLRHYLNWLTRQRF-NH2; N-terminus assumed) | 1.58 | 0.0316 | 312 | – | 12 |
| CC(C)C[C@H](NC(=O)[C@H](CC(=O)O)NC(=O)[C@H](CCCCNC(=O)CC[C@H](NC(=O)CC[C@H](NC(=O)CCCCCCCCCCCCCCCCCCC(=O)O)C(=O)O)C(=O)O)NC(=O)[C@H](Cc1ccc(O)cc1)NC(=O)[C@H](Cc1ccc(O)cc1)NC(=O)[C@H](CCCNC(=N)N)NC(=O)[C@H](CC(=O)O)NC(=O)[C@H](Cc1c[nH]c2ccccc12)NC(=O)[C@H](CCC(=O)O)NC(=O)[C@H](CCCCN)NC(=O)[C@@H]1CCCN1C(=O)[C@H](CO)NC(=O)[C@H](C)NC(=O)[C@H](CC(=O)O)NC(=O)[C@H](CCC(=O)O)NC(=O)CNC(=O)[C@@H]1CCCN1C(=O)[C@H](CCCCN)NC(=O)[C@H](CCC(=O)O)NC(=O)[C@@H]1CCCN1C(=O)[C@H](CCCCN)NC(=O)[C@@H]1CCCN1)C(=O)N[C@@H](CCCNC(=N)N)C(=O)N[C@@H](Cc1c[nH]cn1)C(=O)N[C@@H](Cc1ccc(O)cc1)C(=O)N[C@@H](CC(C)C)C(=O)N[C@@H](CC(N)=O)C(=O)N[C@@H](Cc1c[nH]c2ccccc12)C(=O)N[C@@H](CC(C)C)C(=O)N[C@H](C(=O)N[C@@H](CCCNC(=N)N)C(=O)N[C@@H](CCC(N)=O)C(=O)N[C@@H](CCCNC(=N)N)C(=O)N[C@@H](Cc1ccccc1)C(N)=O)[C@@H](C)O [Compound A34] | 1.58 | 0.0631 | 402 | – | 294 |
